Consider 10 molecules from US8487108B2, “Piperidinyl carbamate intermediates for the synthesis of aspartic protease inhibitors” (Vitae Pharmaceuticals, Inc., priority 2005, dated 2013).

The assay concerns the target T1, trypsin-activated recombinant human renin (Homo sapiens, UniProt P00797).
T1 sequence (P00797 67-406): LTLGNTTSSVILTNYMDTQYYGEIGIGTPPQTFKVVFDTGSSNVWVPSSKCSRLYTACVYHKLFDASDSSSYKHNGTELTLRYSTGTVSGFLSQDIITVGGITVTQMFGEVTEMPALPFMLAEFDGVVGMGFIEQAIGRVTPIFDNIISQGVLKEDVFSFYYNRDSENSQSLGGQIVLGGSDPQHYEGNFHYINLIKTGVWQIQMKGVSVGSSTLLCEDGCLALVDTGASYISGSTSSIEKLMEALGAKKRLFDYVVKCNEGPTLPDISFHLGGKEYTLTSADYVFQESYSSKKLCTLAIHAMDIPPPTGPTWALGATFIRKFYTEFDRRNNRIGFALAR
In words: Renin fluorescence assay (internally quenched peptide substrate). The class given is biochemical. Particulars: compounds I*. A digest of the protocol: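 Compounds (1 nM–10 μM final, DMSO) were mixed with internally quenched angiotensinogen-sequence substrate in pH 7.0 BES/NaCl/BSA buffer, then 0.2-2 nM trypsin-activated human renin added. Rate from the linear fluorescence increase (340 nm excitation, 495 nm emission) over 60-360 min at rt, compared with uninhibited control.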
With `CNC[C@H](CC1CCCOCC1)NC(=O)N1CCC[C@@H]([C@@H](OCCNC(=O)OC)c2cccc(F)c2)C1` (stereo partly drawn) [I*-47a, methyl 2-((R)-(3-fluorophenyl)((3R)-1-((S)-1-(methylamino)-3-(oxepan-4-yl)propan-2-ylcarbamoyl)piperidin-3-yl)methoxy)ethylcarbamate], the IC50 is less than 10 nM.

On to `CNC[C@H](CC1CCCCC1)NC(=S)N1CCC[C@@H]([C@@H](OCCNC(=O)OC)c2cccc(Cl)c2)C1` [I*-111a, methyl 2-((R)-(3-chlorophenyl)((R)-1-((S)-1-cyclohexyl-3-(methylamino)propan-2-ylcarbamothioyl)piperidin-3-yl)methoxy)ethylcarbamate], for which the IC50 was less than 1 nM.

Take `CNC[C@H](CC1CCOCC1)NC(=O)N1CCC[C@@H]([C@@H](OCCNC(=O)OC)c2cc(F)cc(Cl)c2)C1` [I*-121a, methyl 2-((R)-(3-chloro-5-fluorophenyl)((R)-1-((S)-1-(methylamino)-3-(tetrahydro-2H-pyran-4-yl)propan-2-ylcarbamoyl)piperidin-3-yl)methoxy)ethylcarbamate]: the IC50 is less than 20 nM.

Consider `COC(=O)NCCO[C@@H](c1cccc(F)c1)[C@@H]1CCCN(C(=O)N[C@H](CN)CC2CCCCC2)C1` [I*-4a, methyl 2-((R)-((R)-1-((S)-1-amino-3-cyclohexylpropan-2-ylcarbamoyl)piperidin-3-yl)(3-fluorophenyl)methoxy)ethylcarbamate], for which the IC50 is less than 1 nM.

Take `CNC[C@H](C[C@H]1CCC2(CC2)OC1)NC(=O)N1CCC[C@@H]([C@@H](OCCNC(=O)OC)c2cc(F)cc(F)c2)C1` [I*-160a, methyl 2-((R)-(3,5-difluorophenyl)((R)-1-((S)-1-((R)-4-oxaspiro[2.5]octan-6-yl)-3-(methylamino)propan-2-ylcarbamoyl)piperidin-3-yl)methoxy)ethylcarbamate]: the IC50 is less than 1 nM.

For the molecule `CCNC[C@H](CC1CCCCC1)NC(=O)N1CCC[C@@H]([C@@H](OCCNC(=O)OC)c2cccc(Cl)c2)C1` [I*-88a, methyl 2-((R)-(3-chlorophenyl)((R)-1-((S)-1-cyclohexyl-3-(ethylamino)propan-2-ylcarbamoyl)piperidin-3-yl)methoxy)ethylcarbamate], the IC50 is less than 1 nM.

Turning to `CNC[C@H](CC1(C)CCCCC1)NC(=O)N1CCC[C@@H]([C@@H](OCCNC(=O)OC)c2cc(F)cc(F)c2)C1` [I*-95a, methyl 2-((R)-(3,5-difluorophenyl)((R)-1-((S)-1-(methylamino)-3-(1-methylcyclohexyl)propan-2-ylcarbamoyl)piperidin-3-yl)methoxy)ethylcarbamate], the IC50 is less than 10 nM.

In the case of `CNC[C@@H](NC(=O)N1CCC[C@@H]([C@@H](OCCNC(=O)OC)c2cccc(F)c2F)C1)[C@@H](O)C1CCCC1` [I*-72a, methyl 2-((R)-((R)-1-((1S,2R)-1-cyclopentyl-1-hydroxy-3-(methylamino)propan-2-ylcarbamoyl)piperidin-3-yl)(2,3-difluorophenyl)methoxy)ethylcarbamate], the half-maximal inhibitory concentration (IC50) was less than 10 nM.

As to `CNC[C@H](CC1CCOCC1)NC(=O)N1CCC[C@@H]([C@@H](OCCNC(=O)OC)c2cc(C)ccc2C)C1` [I*-37a, methyl 2-((R)-(2,5-dimethylphenyl)((R)-1-((S)-1-(methylamino)-3-(tetrahydro-2H-pyran-4-yl)propan-2-ylcarbamoyl)piperidin-3-yl)methoxy)ethylcarbamate], the IC50 was less than 20 nM.

Take `CNC[C@@H](NC(=O)N1CCC[C@@H]([C@@H](OCCNC(=O)OC)c2cc(F)ccc2C)C1)[C@@H](O)C1CCCC1` [I*-53a, methyl 2-((R)-((R)-1-((1S,2R)-1-cyclopentyl-1-hydroxy-3-(methylamino)propan-2-ylcarbamoyl)piperidin-3-yl)(5-fluoro-2-methylphenyl)methoxy)ethylcarbamate]: the IC50 is less than 20 nM.
